Results on eight compounds are retold here after patent publication US20250221411A1, “SUBSTITUTED BENZAMIDES AS HERBICIDES” (SYNGENTA CROP PROTECTION AG, priority 2021, published 2025).

Holding throughout (format): in vivo
Common to all, as to details: 250 g/h, evaluated after 13 days, five-point scale

The test system of test [1] is Amaranthus retoflexus (AMARE). Briefly: Post-emergence herbicidal glasshouse test, AMARE. How it is done: (§1) Seeds of a variety of test species are sown in standard soil in pots Amaranthus retoflexus (AMARE), Abutilon theophrasti (ABUTH), Setaria faberi (SETFA), Echinochloa crus-galli (ECHCG), Ipomoea hederacea (IPOHE)). After cultivation for one day (pre-emergence) or after 8 days cultivation (post-emergence) under controlled conditions in a glasshouse (at 24/16° C., day/night; 14 hours light; 65% humidity), the plants are sprayed with an aqueous spray solution derived from the formulation of the technical active ingredient in acetone/water (50:50) solution containing 0.5% Tween 20 (polyoxyethelyene sorbitan monolaurate, CAS RN 9005-64-5). Compounds are applied at 250 g/h unless otherwise indicated. The test plants are then grown in a glasshouse under controlled conditions in a glasshouse (at 24/16° C., day/night; 14 hours light; 65% humidity) and watered twice daily. After 13 days for pre and post-emergence, the test is evaluated for the percentage damage caused to the plant. The biological activities are shown in the following table on a five-point scale (5=80-100%; 4=60-79%; 3=40-59%; 2=20-39%; 1=0-19%).

For test [2], the system named is Abutilon theophrasti (ABUTH). Briefly: Post-emergence herbicidal glasshouse test, ABUTH. How it is done: as §1
For test [3], the system named is Setaria faberi (SETFA). Briefly: Post-emergence herbicidal glasshouse test, SETFA. The procedure: as §1
For test [4], the system named is Echinochloa crus-galli (ECHCG). Briefly: Post-emergence herbicidal glasshouse test, ECHCG. How it is done:
as §1

Test [5] deals with Ipomoea hederacea (IPOHE). Briefly: Post-emergence herbicidal glasshouse test, IPOHE. The procedure:
as §1

Test [6] deals with Amaranthus retoflexus (AMARE). Briefly: Pre-emergence herbicidal glasshouse test, AMARE. How it is done:
as §1

Test [7] concerns Abutilon theophrasti (ABUTH). Briefly: Pre-emergence herbicidal glasshouse test, ABUTH. The procedure: as §1
Test [8] deals with Setaria faberi (SETFA). Briefly: Pre-emergence herbicidal glasshouse test, SETFA. How it is done: as §1
Test [9] concerns Echinochloa crus-galli (ECHCG). Briefly: Pre-emergence herbicidal glasshouse test, ECHCG. How it is done: as §1
Test [10] concerns Ipomoea hederacea (IPOHE). Briefly: Pre-emergence herbicidal glasshouse test, IPOHE. The procedure: as §1

Turning to `CC(=O)NCc1c(OC(F)(F)F)ccc(C(=O)Nc2nnnn2C)c1Cl` [Compound 1.009], in [1], the “percentage damage caused to the plant, POST Application AMARE” value is 5 (5=80-100%). In addition, the “percentage damage caused to the plant, POST Application ABUTH” value in [2] is listed as 5 (5=80-100%). The “percentage damage caused to the plant, POST Application SETFA” value in the test on Setaria faberi (SETFA) [3] is on record as 5 (5=80-100%). For the same compound, the “percentage damage caused to the plant, POST Application ECHCG” value in [4] is on record as 5 (5=80-100%). Besides, the “percentage damage caused to the plant, POST Application IPOHE” value in test [5] was 5 (5=80-100%). Besides, in test [6], the “percentage damage caused to the plant, PRE Application AMARE” value is reported as 5 (5=80-100%). Further, the “percentage damage caused to the plant, PRE Application ABUTH” value in test [7] is listed as 5 (5=80-100%). In addition, the “percentage damage caused to the plant, PRE Application SETFA” value in the test on Setaria faberi (SETFA) [8] is 5 (5=80-100%). Also, in [9], the “percentage damage caused to the plant, PRE Application ECHCG” value was 5 (5=80-100%). Also, in [10], the “percentage damage caused to the plant, PRE Application IPOHE” value is on record as 4 (4=60-79%).
For `CCCC(=O)NCc1c(OC(F)(F)F)ccc(C(=O)Nc2nnnn2CC)c1Cl` [Compound 1.005], the “percentage damage caused to the plant, POST Application AMARE” value in test [1] is reported as 5 (5=80-100%). The “percentage damage caused to the plant, POST Application ABUTH” value in test [2] is recorded as 5 (5=80-100%). Moreover, in the test with Setaria faberi (SETFA) [3], the “percentage damage caused to the plant, POST Application SETFA” value is given as 5 (5=80-100%). Also, the “percentage damage caused to the plant, POST Application IPOHE” value in [5] is reported as 5 (5=80-100%). Also, the “percentage damage caused to the plant, PRE Application AMARE” value in test [6] was 5 (5=80-100%). Moreover, in test [7], the “percentage damage caused to the plant, PRE Application ABUTH” value was 5 (5=80-100%). Moreover, in the test with Setaria faberi (SETFA) [8], the “percentage damage caused to the plant, PRE Application SETFA” value was 1 (1=0-19%). Besides, the “percentage damage caused to the plant, PRE Application ECHCG” value in [9] is 1 (1=0-19%). For the same compound, in test [10], the “percentage damage caused to the plant, PRE Application IPOHE” value is recorded as 1 (1=0-19%).
For `CN(Cc1c(OC(F)(F)F)ccc(C(=O)Nc2nnnn2C)c1Cl)C(=O)C1CC1` [Compound 1.002], the “percentage damage caused to the plant, POST Application AMARE” value in test [1] is listed as 5 (5=80-100%). In test [2], the “percentage damage caused to the plant, POST Application ABUTH” value is 5 (5=80-100%). Besides, in the test with Setaria faberi (SETFA) [3], the “percentage damage caused to the plant, POST Application SETFA” value is reported as 5 (5=80-100%). Besides, the “percentage damage caused to the plant, POST Application ECHCG” value in test [4] is recorded as 5 (5=80-100%). For the same compound, the “percentage damage caused to the plant, POST Application IPOHE” value in test [5] is listed as 5 (5=80-100%). Further, the “percentage damage caused to the plant, PRE Application AMARE” value in test [6] is recorded as 1 (1=0-19%). For the same compound, in test [7], the “percentage damage caused to the plant, PRE Application ABUTH” value is given as 3 (3=40-59%). Further, in the test on Setaria faberi (SETFA) [8], the “percentage damage caused to the plant, PRE Application SETFA” value was 2 (2=20-39%). Besides, in test [9], the “percentage damage caused to the plant, PRE Application ECHCG” value is 2 (2=20-39%). For the same compound, in [10], the “percentage damage caused to the plant, PRE Application IPOHE” value was 1 (1=0-19%).
For the compound `CCC(=O)NCc1c(OC(F)(F)F)ccc(C(=O)Nc2nnnn2C)c1Cl` [Compound 1.003, 2-chloro-N-(1-methyltetrazol-5-yl)-3-[(propanoylamino)methyl]-4-(trifluoromethoxy)benzamide], in [1], the “percentage damage caused to the plant, POST Application AMARE” value is reported as 5 (5=80-100%). For the same compound, the “percentage damage caused to the plant, POST Application SETFA” value in the test on Setaria faberi (SETFA) [3] is 5 (5=80-100%). Further, in test [4], the “percentage damage caused to the plant, POST Application ECHCG” value is on record as 5 (5=80-100%). For the same compound, the “percentage damage caused to the plant, POST Application IPOHE” value in test [5] is reported as 5 (5=80-100%). In addition, the “percentage damage caused to the plant, PRE Application AMARE” value in test [6] is recorded as 5 (5=80-100%). The “percentage damage caused to the plant, PRE Application ABUTH” value in test [7] was 5 (5=80-100%). The “percentage damage caused to the plant, PRE Application SETFA” value in the test on Setaria faberi (SETFA) [8] is reported as 4 (4=60-79%). The “percentage damage caused to the plant, PRE Application ECHCG” value in [9] is 1 (1=0-19%). Moreover, the “percentage damage caused to the plant, PRE Application IPOHE” value in test [10] is 3 (3=40-59%).
In the case of `CCC(=O)N(C)Cc1c(OC(F)(F)F)ccc(C(=O)Nc2nnnn2C)c1Cl` [Compound 1.001], the “percentage damage caused to the plant, POST Application AMARE” value in test [1] is reported as 5 (5=80-100%). Moreover, the “percentage damage caused to the plant, POST Application ABUTH” value in test [2] is given as 5 (5=80-100%). Besides, the “percentage damage caused to the plant, POST Application SETFA” value in the test with Setaria faberi (SETFA) [3] was 5 (5=80-100%). Also, in [4], the “percentage damage caused to the plant, POST Application ECHCG” value is recorded as 5 (5=80-100%). The “percentage damage caused to the plant, POST Application IPOHE” value in [5] is reported as 5 (5=80-100%). Moreover, in test [6], the “percentage damage caused to the plant, PRE Application AMARE” value is 5 (5=80-100%). The “percentage damage caused to the plant, PRE Application ABUTH” value in [7] is 5 (5=80-100%). Besides, the “percentage damage caused to the plant, PRE Application SETFA” value in the test with Setaria faberi (SETFA) [8] is listed as 3 (3=40-59%). In test [9], the “percentage damage caused to the plant, PRE Application ECHCG” value is 4 (4=60-79%). The “percentage damage caused to the plant, PRE Application IPOHE” value in test [10] is reported as 1 (1=0-19%).
With `Cn1nnnc1NC(=O)c1ccc(OC(F)(F)F)c(CNC(=O)c2ccc(Cl)cc2)c1Cl` [Compound 1.011], the “percentage damage caused to the plant, POST Application AMARE” value in test [1] is recorded as 5 (5=80-100%). In addition, the “percentage damage caused to the plant, POST Application ABUTH” value in test [2] is given as 5 (5=80-100%). Besides, the “percentage damage caused to the plant, POST Application SETFA” value with Setaria faberi (SETFA) [3] is reported as 2 (2=20-39%). The “percentage damage caused to the plant, POST Application ECHCG” value in test [4] is 5 (5=80-100%). The “percentage damage caused to the plant, POST Application IPOHE” value in [5] is reported as 5 (5=80-100%). Further, the “percentage damage caused to the plant, PRE Application AMARE” value in test [6] was 5 (5=80-100%). Further, in test [7], the “percentage damage caused to the plant, PRE Application ABUTH” value is given as 5 (5=80-100%). Also, the “percentage damage caused to the plant, PRE Application SETFA” value with Setaria faberi (SETFA) [8] is 1 (1=0-19%). In addition, the “percentage damage caused to the plant, PRE Application ECHCG” value in test [9] is on record as 1 (1=0-19%). Further, the “percentage damage caused to the plant, PRE Application IPOHE” value in test [10] is 1 (1=0-19%).
As for `Cn1nnnc1NC(=O)c1ccc(OC(F)(F)F)c(CNC(=O)c2ccc(F)cc2F)c1Cl` [Compound 1.010], in [1], the “percentage damage caused to the plant, POST Application AMARE” value is recorded as 5 (5=80-100%). For the same compound, the “percentage damage caused to the plant, POST Application ABUTH” value in test [2] is reported as 5 (5=80-100%). In addition, the “percentage damage caused to the plant, POST Application SETFA” value in the test on Setaria faberi (SETFA) [3] is 5 (5=80-100%). Also, the “percentage damage caused to the plant, POST Application ECHCG” value in test [4] is on record as 5 (5=80-100%). In addition, the “percentage damage caused to the plant, POST Application IPOHE” value in [5] is recorded as 5 (5=80-100%). Further, the “percentage damage caused to the plant, PRE Application AMARE” value in test [6] is reported as 5 (5=80-100%). For the same compound, the “percentage damage caused to the plant, PRE Application ABUTH” value in [7] is listed as 5 (5=80-100%). The “percentage damage caused to the plant, PRE Application SETFA” value with Setaria faberi (SETFA) [8] is recorded as 1 (1=0-19%). The “percentage damage caused to the plant, PRE Application ECHCG” value in [9] is reported as 1 (1=0-19%). Moreover, the “percentage damage caused to the plant, PRE Application IPOHE” value in test [10] is reported as 1 (1=0-19%).
`Cn1nnnc1NC(=O)c1ccc(OC(F)(F)F)c(CNC(=O)c2c(F)cccc2F)c1Cl` [Compound 1.008]: the “percentage damage caused to the plant, POST Application ABUTH” value in [2] is reported as 5 (5=80-100%). In the test with Setaria faberi (SETFA) [3], the “percentage damage caused to the plant, POST Application SETFA” value is on record as 4 (4=60-79%). Also, the “percentage damage caused to the plant, POST Application ECHCG” value in test [4] is 5 (5=80-100%). Moreover, the “percentage damage caused to the plant, POST Application IPOHE” value in test [5] was 5 (5=80-100%). Besides, in test [6], the “percentage damage caused to the plant, PRE Application AMARE” value is reported as 5 (5=80-100%). Also, in test [7], the “percentage damage caused to the plant, PRE Application ABUTH” value is recorded as 5 (5=80-100%). In addition, the “percentage damage caused to the plant, PRE Application SETFA” value in the test on Setaria faberi (SETFA) [8] is 2 (2=20-39%). Moreover, the “percentage damage caused to the plant, PRE Application ECHCG” value in test [9] was 2 (2=20-39%). Besides, in [10], the “percentage damage caused to the plant, PRE Application IPOHE” value is listed as 1 (1=0-19%).
